From US12391686B2, “Compounds and uses thereof” (Foghorn Therapeutics Inc., priority 2019, dated 2025) come the findings set out here.

Like-named read-outs stand apart in the source and are kept apart here.

This assay has as its target T1, Nanoluciferase-BRD9 fusion protein (3×FLAG-NLuc-BRD9) in SYO-1 cells (Homo sapiens, UniProt Q9H8M2).
T1 construct: expressed in transfected cells; host or cells: SYO-1
T1 sequence (Q9H8M2 1-597): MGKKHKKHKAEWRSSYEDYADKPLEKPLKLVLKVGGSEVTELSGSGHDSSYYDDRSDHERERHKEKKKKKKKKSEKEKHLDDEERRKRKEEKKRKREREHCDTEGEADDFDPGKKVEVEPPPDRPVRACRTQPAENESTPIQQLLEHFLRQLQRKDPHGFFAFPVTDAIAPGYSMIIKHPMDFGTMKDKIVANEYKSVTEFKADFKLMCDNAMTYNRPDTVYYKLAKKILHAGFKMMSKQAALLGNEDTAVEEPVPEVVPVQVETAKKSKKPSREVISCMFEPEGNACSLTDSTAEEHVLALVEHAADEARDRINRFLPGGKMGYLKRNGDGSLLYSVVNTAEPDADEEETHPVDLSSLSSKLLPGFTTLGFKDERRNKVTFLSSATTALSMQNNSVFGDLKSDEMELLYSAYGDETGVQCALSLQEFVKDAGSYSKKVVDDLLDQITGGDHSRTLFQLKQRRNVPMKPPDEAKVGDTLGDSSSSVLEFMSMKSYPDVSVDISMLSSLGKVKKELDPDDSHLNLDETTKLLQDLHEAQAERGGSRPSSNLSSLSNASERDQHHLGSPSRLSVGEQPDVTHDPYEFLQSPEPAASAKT
The assay is described as follows: SYO1 BRD9 NanoLuc Degradation Assay. The class given is cell-based. Conditions: SYO-1 cells expressing 3×FLAG-NLuc-BRD9, 6 hours incubation, 1 μM top dose, read-out: SYO1 BRD9-NanoLuc degradation IC50. The method in brief:
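Stable 3×FLAG-NLuc-BRD9 SYO-1 line, 8000 cells/well, dosed day 1 with 10-point 3-fold dilutions (1 μM final top, duplicates) for 6 h. NanoLuc bioluminescence read with Nano-Glo; % inhibition relative to DMSO (high) and 1 μM reference BRD9 degrader (low) controls.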

In the case of `COc1cc(-c2cn(C)c(=O)c3cnc(N4CCC4)cc23)cc(OC)c1CN1CCC(c2ccc3c(c2)C(=O)N(C2CCC(=O)NC2=O)C3=O)CC1C(F)(F)F` (stereo not drawn) [Compound D150], the DC50 (Table 6B) is less than 10 nM. In the case of `C/C=C/Cn1cc(-c2cc(OC)c(CN3CCN(CCC4CCN(c5ccc6c(c5)C(=O)N(C5CCC(=O)NC5=O)C6=O)CC4)CC3)c(OC)c2)c2cc(N(C)C)ncc2c1=O` (stereo not drawn) [Compound D151], the DC50 (Table 6B) is less than 10 nM. Consider `COc1cc(-c2cn(C)c(=O)c3cnc(N(C)C)cc23)cc(OC)c1CN1CC(CN2CCC3(CC2)CN(c2ccc4c(c2)C(=O)N(C2CCC(=O)NC2=O)C4)C3)C1` (stereo not drawn) [Compound D152], for which the DC50 (Table 6B) is less than 10 nM. For the compound `COc1cc(-c2cn(C)c(=O)c3cnc(N4CCC4)cc23)cc(OC)c1CN1CC(CN2CCC3(CC2)CN(c2ccc4c(c2)CN(C2CCC(=O)NC2=O)C4=O)C3)C1` (stereo not drawn) [Compound D153], the DC50 (Table 6B) is less than 10 nM. Regarding `COc1cc(-c2cn(C)c(=O)c3cnc(N(C)C)cc23)cc(OC)c1CN1CCN(c2ccn3c(=O)n(C4CCC(=O)NC4=O)nc3c2)CC1` (stereo not drawn) [Compound D154], the DC50 (Table 6B) was less than 10 nM. As for `COc1cc(-c2cn(C)c(=O)c3cnc(N(C)C)cc23)cc(OC)c1CN1CCN(CC2CCN(c3ccc4c(c3)C(=O)N(C3CCC(=O)NC3=O)C4=O)CC2)CC1` (stereo not drawn) [Compound D155], the DC50 (Table 6B) was less than 10 nM. For the compound `CNc1cc2c(=O)n(C)cc(-c3cc(OC)c(CN(C)CC45CC(C(=O)NCCCCCNc6cccc7c6C(=O)N(C6CCC(=O)NC6=O)C7=O)(C4)C5)c(OC)c3)c2cn1` (stereo not drawn) [Compound D172], the DC50 (Table 6B) was 10 to 100 nM. Regarding `CNc1cc2c(=O)n(C)cc(-c3cc(OC)c(CN(C)CC45CC(C(=O)NCCCCCOc6ccc7c(c6)C(=O)N(C6CCC(=O)NC6=O)C7=O)(C4)C5)c(OC)c3)c2cn1` (stereo not drawn) [Compound D173], the DC50 (Table 6B) was less than 10 nM. In the case of `CCc1cc(-c2cn(C)c(=O)c3cnc(N(C)C)cc23)cc(OC)c1CN1CCC(CN2CCC3(CC2)CC(Oc2ccc4c(c2)C(=O)N(C2CCC(=O)NC2=O)C4=O)C3)CC1` (stereo not drawn) [Compound D174], the DC50 (Table 6B) was less than 10 nM. With `COc1cc(-c2cn(C)c(=O)c3cnc(OC(F)F)cc23)cc(OC)c1CN1CC(CN2CCC3(CC2)CN(c2ccc4c(c2)C(=O)N(C2CCC(=O)NC2=O)C4)C3)C1` (stereo not drawn) [Compound D175], the DC50 (Table 6B) was no less than 1000 nM.

In the case of `COc1cc(-c2cn(C)c(=O)c3ccc(N4CCC4)cc23)cc(OC)c1CN1CCC(N2CCN(c3ccc4c(c3)CN(C3CCC(=O)NC3=O)C4=O)CC2)CC1` (stereo not drawn) [Compound D176], the DC50 (Table 6B) is less than 10 nM. Consider `COc1cc(-c2cn(C)c(=O)c3cnc(N4CCC4)cc23)cc(OC)c1CN1CC(N2CCC(c3ccc4c(c3)CN(C3CCC(=O)NC3=O)C4=O)CC2)C1` (stereo not drawn) [Compound D177], for which the DC50 (Table 6B) is less than 10 nM. Regarding `COc1cc(-c2cn(C)c(=O)c3cnc(N4CCOCC4)cc23)cc(OC)c1CN1CCC(CN2CCC3(CC2)CC(Oc2ccc4c(c2)C(=O)N(C2CCC(=O)NC2=O)C4=O)C3)CC1` (stereo not drawn) [Compound D178], the DC50 (Table 6B) is less than 10 nM. On to `COc1cc(-c2cn(C)c(=O)c3cnc(N4CCC4)cc23)cc(OC)c1CN1CC(N2CCC(c3ccc4c(c3)C(=O)N(C3CCC(=O)NC3=O)C4)CC2)C1` (stereo not drawn) [Compound D179], for which the DC50 (Table 6B) was no less than 1000 nM. As for `COc1cc(-c2cn(C)c(=O)c3ccc(N4CCC4)cc23)cc(OC)c1CN1CCC(C2CCN(c3ccc4c(c3)CN(C3CCC(=O)NC3=O)C4=O)CC2)CC1` (stereo not drawn) [Compound D181], under “Table 6B”, the DC50 is no less than 1000 nM. For `COc1cc(-c2cn(C)c(=O)c3cnc(N4CCC4)nc23)cc(OC)c1CN1CCC(CN2CCC3(CC2)CC(Oc2ccc4c(c2)CN(C2CCC(=O)NC2=O)C4=O)C3)CC1` (stereo not drawn) [Compound D182], where the note is “Table 6B”, the DC50 is less than 10 nM. In the case of `COc1cc(-c2cn(C)c(=O)c3ccc(N4CCC4)cc23)cc(OC)c1CN1CCC(N2CCC(c3ccc4c(c3)CN(C3CCC(=O)NC3=O)C4=O)CC2)CC1` (stereo not drawn) [Compound D183], the DC50 (Table 6B) was no less than 1000 nM. Consider `COc1cc2c(-c3cc(OC)c(CN4CC(CN5CCC6(CC5)CN(c5ccc7c(c5)C(=O)N(C5CCC(=O)NC5=O)C7)C6)C4)c(OC)c3)cn(C)c(=O)c2cn1` (stereo not drawn) [Compound D184], for which the DC50 (Table 6B) is less than 10 nM. As for `COc1cc(-c2cn(C)c(=O)c3cnc(N4CCC4)cc23)cc(OC)c1CN1CC(C(C)(C)N2CCC3(CC2)CN(c2ccc4c(c2)CN(C2CCC(=O)NC2=O)C4=O)C3)C1` (stereo not drawn) [Compound D185], the DC50 (Table 6C) is less than 10 nM. As to `COc1cc(-c2cn(C)c(=O)c3cnc(C(F)(F)F)cc23)cc(OC)c1CN1CC(CN2CCC3(CC2)CN(c2ccc4c(c2)C(=O)N(C2CCC(=O)NC2=O)C4)C3)C1` (stereo not drawn) [Compound D186], the DC50 (Table 6C) was less than 10 nM. With `COc1cc(-c2cn(C)c(=O)c3cnc(N4CCC4)cc23)cc(OC)c1CN1CCC(CN2CCC3(CC2)CC(Oc2ccc4c(c2)C(=O)N(C2CCC(=O)NC2=O)C4)C3)CC1` (stereo not drawn) [Compound D187], the DC50 (Table 6C) is less than 10 nM. For `COc1cc(-c2cn(C)c(=O)c3cnc(S(N)(=O)=O)cc23)cc(OC)c1CN1CCC(CN2CCC3(CC2)CC(Oc2ccc4c(c2)C(=O)N(C2CCC(=O)NC2=O)C4)C3)CC1` (stereo not drawn) [Compound D188], the DC50 (Table 6C) was less than 10 nM. As to `COc1cc(-c2cn(C)c(=O)c3cnc(N(C)C)cc23)cc(Cl)c1C(=O)N1CCN(CCC2CCN(c3ccc4c(c3)CN(C3CCC(=O)NC3=O)C4=O)CC2)CC1` (stereo not drawn) [Compound D189], the DC50 (Table 6C) is less than 10 nM. The same measure, in the same setting: under `COc1cc(-c2cn(C)c(=O)c3cnc(C(C)(C)CO)cc23)cc(OC)c1CN1CCC(CN2CCC3(CC2)CC(Oc2ccc4c(c2)C(=O)N(C2CCC(=O)NC2=O)C4)C3)CC1` (stereo not drawn) [Compound D190] stands less than 10 nM; under `COc1cc(-c2nn(C)c(=O)c3cnc(N4CCC4)cc23)cc(OC)c1CN1CCC(CN2CCC3(CC2)CC(Oc2ccc4c(c2)C(=O)N(C2CCC(=O)NC2=O)C4)C3)CC1` (stereo not drawn) [Compound D191], 100 to 1000 nM; under `COc1cc(-c2cn(C)c(=O)c3cnc(N4CCC4)cc23)cc(OC)c1CN1CC(C(C)(C)N2CCC3(CC2)CN(c2ccc4c(c2)C(=O)N(C2CCC(=O)NC2=O)C4)C3)C1` (stereo not drawn) [Compound D192], less than 10 nM. With `COc1cc(-c2cn(C)c(=O)c3cnc(C4CC4)cc23)cc(OC)c1CN1CC(CN2CCC3(CC2)CN(c2ccc4c(c2)C(=O)N(C2CCC(=O)NC2=O)C4)C3)C1` (stereo not drawn) [Compound D193], the DC50 (Table 6C) was less than 10 nM. In the case of `COc1cc(-c2cn(C)c(=O)c3cnc(N4CCOCC4)cc23)cc(OC)c1CN1CCC(CN2CCC3(CC2)CC(Oc2ccc4c(c2)C(=O)N(C2CCC(=O)NC2=O)C4)C3)CC1` (stereo not drawn) [Compound D194], the DC50 (Table 6C) is less than 10 nM. Still for that read-out and setting: under `COc1cc(-c2cn(C)c(=O)c3cnc(C4CC4)cc23)cc(OC)c1CN1CCC(C(N2CCC3(CC2)CC(Oc2ccc4c(c2)C(=O)N(C2CCC(=O)NC2=O)C4=O)C3)C(F)(F)F)CC1` (stereo not drawn) [Compound D195] stands less than 10 nM; under `COc1cc(-c2cn(C)c(=O)c3cnc(N4CCOCC4)cc23)cc(OC)c1CN1CCC(C(N2CCC3(CC2)CC(Oc2ccc4c(c2)C(=O)N(C2CCC(=O)NC2=O)C4=O)C3)C(F)(F)F)CC1` (stereo not drawn) [Compound D196], less than 10 nM; under `[2H]C([2H])([2H])N(c1cc2c(-c3cc(OC)c(CN4CCN(CCC5CCN(c6ccc7c(c6)C(=O)N(C6CCC(=O)NC6=O)C7)CC5)CC4)c(OC)c3)cn(C)c(=O)c2cn1)C([2H])([2H])[2H]` (stereo not drawn) [Compound D197], less than 10 nM. On the same count and under the same terms, under `[2H]C([2H])([2H])Oc1cc2c(-c3cc(OC)c(CN4CCN(CCC5CCN(c6ccc7c(c6)C(=O)N(C6CCC(=O)NC6=O)C7)CC5)CC4)c(OC)c3)cn(C)c(=O)c2cn1` (stereo not drawn) [Compound D198] stands less than 10 nM. On to `COc1cc2c(-c3cc(OC)c(CN4CCC(CCN5CCC6(CC5)CN(c5ccc7c(c5)C(=O)N(C5CCC(=O)NC5=O)C7)C6)CC4)c(OC)c3)cn(C)c(=O)c2cn1` (stereo not drawn) [Compound D199], for which the DC50 (Table 6C) was less than 10 nM. Still for that read-out and setting: next, `COc1cc(-c2cn(C)c(=O)c3cnc(N4CC(F)C4)cc23)cc(OC)c1CN1CC(CN2CCC3(CC2)CN(c2ccc4c(c2)C(=O)N(C2CCC(=O)NC2=O)C4)C3)C1` (stereo not drawn) [Compound D200]: less than 10 nM.

On to `COc1cc(-c2cn(C)c(=O)c3cnc(N4CC5(CC5)C4)cc23)cc(OC)c1CN1CC(CN2CCC3(CC2)CN(c2ccc4c(c2)C(=O)N(C2CCC(=O)NC2=O)C4)C3)C1` (stereo not drawn) [Compound D201], for which the DC50 (Table 6C) was less than 10 nM. Consider `COc1cc(-c2cn(C)c(=O)c3cnc(N4CCC4)cc23)cc(OC)c1CN(C)c1ccc2c(c1)CN(C1CCC(=O)NC1=O)C2=O` (stereo not drawn) [Compound D202], for which the DC50 (Table 6C) is less than 10 nM. The same measure, in the same setting: under `CCOC1CC1c1cc2c(-c3cc(OC)c(CN4CCN(CCC5CCN(c6ccc7c(c6)C(=O)N(C6CCC(=O)NC6=O)C7)CC5)CC4)c(OC)c3)cn(C)c(=O)c2cn1` (stereo not drawn) [Compound D203] stands less than 10 nM; under `CCOC1CC1c1cc2c(-c3cc(OC)c(CN4CCN(CCC5CCN(c6ccc7c(c6)C(=O)N(C6CCC(=O)NC6=O)C7=O)CC5)CC4)c(OC)c3)cn(C)c(=O)c2cn1` (stereo not drawn) [Compound D204], less than 10 nM.

Consider `COc1cc(-c2cn(C)c(=O)c3cnc(N4CC5(CC5)C4)cc23)cc(OC)c1CN1CCC(CN2CCC3(CC2)CN(c2ccc4c(c2)C(=O)N(C2CCC(=O)NC2=O)C4)C3)CC1` (stereo not drawn) [Compound D205], for which, where the note is “Table 6C”, the DC50 lay in the range of 10 to 100 nM.
